Experimental data from patent US10258635B2, “Formulations and compositions of vitamin D analogs for treating and preventing cancer and other diseases” (priority 2013, dated 2019).
Entries after “also recorded” stand apart in the source; their conditions may differ.

Legend:
[1] = tested on: DU-145 human prostate cancer cells; test: DU-145 xenograft efficacy, i.p. administration (Example 10); assay type: in vivo, athymic mice
Method: Male, athymic mice (average weight 20 gm) were fed normal rat chow and water ad libitum. They were inoculated with DU 145 cells, grown in culture in their flanks under light anesthesia. When the tumor size grew to approximately 100 mm^3 the animals were randomized into groups of ten (10) tumor-bearing animals, and they were given AMPI-109 (0.1 μg/kg), calcitriol (0.5 and 1 μg/kg), and vehicle (5% DMA in sesame oil) by intraperitoneal injection (i.p.) on every third day (when body weights were determined); and one group was left untreated. Treatment started on day 11 and stopped on day 30; and they were left untreated for two (2) additional days when they were sacrificed.

[2] = tested on: 24-OHase; test: Message for 24-OHase in LNCaP cells; assay type: cell-based
[3] = Maximum tolerated dose of AMPI-109 in DU-145 tumor-bearing SCID mice; assay type: in vivo
Method: DU-145 prostate cancer cells (ATCC, Manassas, Va.) were grown in culture, and then approximately 5 million cells/animal was injected under the skin in the flank area of SCID mice (Charles River). Tumors grew in 2-3 weeks, and when they reached a size of approximately 1 cm^3, they were injected with 0.1, 0.5 and 1 μg/kg dose of AMPI-109 (in 5% […] in sesame oil) intraperitoneally. Dosing levels were limited by concentrations and volumes. Each group had six mice. Dosing was carried out every third day and weight of each mouse was recorded.

[4] = tested on: RCC 54 kidney cancer cells; details: 7.5×10^−7 to 10^−6M
Method: In a typical assay cells were grown to 50-60% confluence in 24-well plates in respective media containing 5% FBS, and serum starved for 20 hours, followed by treatment with various agents (in 0.1% ethanolic solution) or ethanol (vehicle) in serum-containing medium for 16 hours. After the treatment media was removed from the wells and replaced with media containing ^3H-thymidine (Sigma, 0.1 μCi) per well, and the cells were incubated for 3 hours at 37° C. After this period media was removed by aspiration and the cells were washed thoroughly (3×0.5 ml) with PBS. Ice-cold 5% perchloric acid solution (0.5 ml) was added to each well and the cells were incubated on ice for 20 minutes. After this incubation, perchloric acid was removed by aspiration, replaced with 0.5 ml of fresh perchloric acid solution and the cells were incubated at 70° C. for 20 minutes. Solution from each well was mixed with scintillation fluid and counted in a liquid scintillation counter. There were eight (8) wells per sample; statistics was carried out by Student's t test.

[5] = tested on: DU-145 human prostate cancer cells; test: DU-145 xenograft efficacy, p.o. administration (Example 11); assay type: in vivo, nude mice
[6] = tested on: DU-145 human prostate cancer cells; test: DU-145 xenograft, AMPI-109 vs APH-0701 (Example 12); assay type: in vivo, athymic mice; details: 0.5 μg/Kg
Method: Male, athymic mice (average weight 20 gm) were fed normal rat chow and water ad libitum. They were inoculated with DU-145 cells (5×10^6 cells, dispersed in 100 μl PBS) in the flank.

[7] = target: VDR (Homo sapiens, UniProt P11473); test: Covalent linking to and activation of VDR; assay type: biochemical; details: covalent link in ligand-binding pocket via a cysteine residue
Sequence of VDR (P11473 whole entry): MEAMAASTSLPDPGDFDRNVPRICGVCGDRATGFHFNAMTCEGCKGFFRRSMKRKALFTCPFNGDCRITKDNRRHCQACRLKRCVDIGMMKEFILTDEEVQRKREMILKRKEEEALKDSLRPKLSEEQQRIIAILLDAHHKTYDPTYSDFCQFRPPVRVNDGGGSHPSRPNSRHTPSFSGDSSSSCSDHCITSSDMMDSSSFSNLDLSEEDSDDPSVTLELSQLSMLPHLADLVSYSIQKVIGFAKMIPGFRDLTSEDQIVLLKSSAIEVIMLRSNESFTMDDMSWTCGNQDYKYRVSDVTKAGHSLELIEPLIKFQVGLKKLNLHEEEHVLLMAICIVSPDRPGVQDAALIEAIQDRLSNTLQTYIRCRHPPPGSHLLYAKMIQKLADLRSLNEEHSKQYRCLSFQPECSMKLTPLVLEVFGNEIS

[8] = tested on: LNCaP, PC-3 and DU-145 prostate cancer cells; test: Anti-proliferation and apoptosis in prostate cancer cells (summary); assay type: cell-based
[9] = tested on: normal kidney cells; test: 3H-thymidine incorporation assay in normal kidney cells; assay type: cell-based; details: 10^−6M
[10] = tested on: DU-145 cells; test: 3H-thymidine incorporation assay in DU-145 cells; assay type: cell-based, human
[11] = Stability study in liver homogenate; assay type: in vitro ADME, mouse; details: 37° C., 60 minutes, HPLC
Method: Pieces of liver, obtained from normal mice were minced and homogenized in phosphated saline with a polytron. […] The organic layer was dried in a stream of nitrogen and the residue was analyzed by HPLC (as above).

[12] = Serum-stability study; assay type: in vitro ADME; details: pooled human serum, 37° C., 60 minutes, HPLC
Method: The organic layer was dried in a stream of nitrogen and the residue was analyzed by HPLC (5% H2O— 95% methanol 1.5 ml/min, 265 nm detection, Agilent C18 column).

[13] = tested on: LNCaP prostate cancer cells; test: 3H-thymidine incorporation assay, APH-0701 vs naked AMPI-109; assay type: cell-based
Method: Antiproliferative activities in these cells were measured by ^3H-thymidine incorporation assay.

## C=C1/C(=C\C=C2/CCC[C@@]3(C)C2CC[C@@H]3C(C)CCCC(C)(C)O)C[C@@H](OC(=O)CBr)CC1O (stereo partly drawn) [AMPI-109, 1α,25-dihydroxyvitamin D3-3-bromoacetate]
[1]; 0.1 μg/kg i.p.
  body weight: some reduction in body weight
[1]; 0.1 μg/kg i.p. every third day, day 11 to 30
  anti-tumor effect: strong anti-tumor effect
[1]; i.p., weight basis
  potency relative to calcitriol in reducing tumor-size: approximately 5 times
[2]
  message for 24-OHase: up regulated
[3]; 1 μg/kg i.p. every third day
  mortality: All mice in the 1 μg/Kg dose died after three dosing
[3]; i.p., every third day, based on dosing
  relative MTD: ≤ 3 µg/kg
[4]
  reduction of proliferation of RCC 54 kidney cancer cells: > 95%
[5]; 0.5 μg/kg p.o. oral gavage
  anti-tumor effect: strong anti-tumor effect
[5]; mouse, in vivo
  potency in p.o.-mode relative to i.p.-mode (times less potent): 5 times
[5]; p.o., calcitriol 0.5 μg/kg and 1.0 μg/kg, AMPI-109 0.5 μg/kg
  body weight: did not cause any significant change in body weight
[6]
  gross body-weights: not significantly different from control animals
[6]; every third day, day 7 to 42
  average size of tumors at the end of the experiment: ~475 mm^3
[7]
  VDR activation: constitutively activated VDR
[8]
  apoptosis: induced apoptosis
[8]; mole-per-mole basis
  anti-proliferative strength relative to calcitriol: significantly stronger anti-proliferative agent than calcitriol
[9]
  impact on normal kidney cells versus control: neither Calcitriol nor AMPI-109 had any statistically different impact
[10]; 2.5×10^−7M to 10^−6M, 20 hours
  antiproliferative effect in DU-145 cells: strong and dose-dependent antiproliferative effect
[10]; 10^−6M, separate experiment
  anti-proliferative effect in DU-145 cells: strong anti-proliferative effect; also recorded: significantly stronger antiproliferative agent than EB-1089
[11]
  stability in mouse liver homogenate: corresponds to the peak of a standard sample
[12]
  stability in human serum: corresponds to the peak of a standard sample
[13]
  growth of LNCaP cells: almost completely inhibited the growth of LNCaP cells
